From article PMC10045483, “Comparative Pharmacokinetic Study of 5 Active Ingredients after Oral Administration of Zuogui Pill in Osteoporotic Rats with Different Syndrome Types” (International Journal of Analytical Chemistry, 2023)
Like-named read-outs stand apart in the source and are kept apart here. One block for each compound: values may come before it.

How the values were obtained:
[1] = Stability of analytes in rat plasma (QC samples) under storage conditions; settings: n = 5; for Stability, Room temperature for 4 h, Mean: 25°C; for Stability, Three freeze-thaw cycles, Mean: −20°C to 25°C
Protocol: QC samples at three levels using five replicates were used to evaluate the stability under the following conditions: 4 h at room temperature (25°C), 24 h in autosampler (4°C), and three freeze-thaw cycles (−20°C to 25°C).

[2] = Pharmacokinetic study of 5 compounds in rat plasma after oral administration of Zuogui Pill extract (HPLC-MS/MS, noncompartmental analysis); type: in vivo, Female Sprague-Dawley rats; settings: oral Zuogui Pill extract 1.5 mL/100 g; for Cmax / Tmax / half-life / CL/F / MRT last / MRT inf: female, Sprague-Dawley, rat, po, 1.5 mL/100 g; for Cmax / Tmax / half-life / AUC0–t / AUC0–∞: n = 6; for CL/F: n = 6, read-out: CL_F_obs (converted); for MRT last: n = 6, read-out: MRT0–t; for MRT inf: n = 6, read-out: MRT0–∞
Protocol: Female Sprague-Dawley rats (180–220 g) were purchased from Shanghai Laboratory Animal Centre (Shanghai, China). The rats were maintained in a standard environment (22 ± 1°C, 60 ± 10% relative humidity, and a 12 h light/dark cycle) for one week to acclimate and fed water and food ad libitum. Twenty-four rats were divided randomly into […] and treated through ovary enucleation to establish the model of osteoporosis. Ten weeks after operation, osteoporosis models of kidney-yang-deficiency and kidney-yin-deficiency were established by intramuscular injection of hydrocortisone (25 mg/kg) and intragastric administration of thyroxine suspension (160 mg/kg) for 10 days, respectively. The femur of two rats from each group was then stained with hematoxylin and eosin (H&E) to assess histopathological change. Also, the validation of osteoporosis kidney-yang-deficiency and kidney-yin-deficiency models was judged by detecting the level of cyclic adenosine monophosphate (cAMP) and cyclic guanosine monophosphate (cGMP) in rat plasma. Laboratory Animal Management and Ethics Committee of Zhejiang Chinese Medical University approved all animal treatments (ZSLL-2014-48).
One hundred microliters of plasma was mixed with 100 μL of the IS solution, followed by 700 μL of methanol:acetonitrile (1 : 1). After 2 min of vortex mixing, the mixture was spun for 15 min at 8000 rpm and 4°C. The supernatants were collected and dried in a high-purity N2 environment. The residues were redissolved in 100 μL methanol and centrifuged for 15 min at 13000 rpm and 4°C. Finally, an aliquot of 10 μL supernatants was used to conduct the analysis.
Four groups of rats were orally administered with Zuogui Pill extract at a dose of 1.5 mL/100 g. Then, 0.3 mL blood samples were collected from orbital veins at 0, 0.08, 0.17, 0.25, 0.5, 1, 2, 4, 6, 8, 12, and 24 h after administration, placed in an anticoagulant tube, and centrifuged for 15 min at 5000 rpm and 4°C. The plasma was prepared and stored at −20°C until analysis.
Phoenix WinNonlin 6.4 software was used to estimate pharmacokinetic parameters using noncompartmental analysis. Furthermore, SPSS 26 software was used to compute comparisons of the pharmacokinetic data among the four groups according to a one-way ANOVA. The results are presented as mean ± SD.

[3] = high QC (800, 16000, 3200, 400, 40 ng/mL in the same order)
[4] = low QC (2, 40, 8, 1, 0.1 ng/mL for chlorogenic acid, loganin, morroniside, aucubin, protocatechuic aldehyde)
[5] = middle QC (40, 800, 160, 20, 2 ng/mL in the same order)
[6] = osteoporosis rats (ovariectomized)
[7] = osteoporotic rats with kidney-yang-deficiency
[8] = osteoporotic rats with kidney-yin-deficiency

- Stability, Room temperature for 4 h, Mean [1, 3]: 98.3%
- Stability, Room temperature for 4 h, Mean [1, 4]: 90.8%
- Stability, Room temperature for 4 h, Mean [1, 5]: 86.1%
- Stability, Autosampler at 4°C for 24 h, Mean [1, 3]: 95.0%
- Stability, Autosampler at 4°C for 24 h, Mean [1, 4]: 89.6%
- Stability, Autosampler at 4°C for 24 h, Mean [1, 5]: 87.6%
- Stability, Three freeze-thaw cycles, Mean [1, 3]: 89.8%
- Stability, Three freeze-thaw cycles, Mean [1, 4]: 93.0%
- Stability, Three freeze-thaw cycles, Mean [1, 5]: 91.5%
- Cmax ([2]; normal rats): 1720 ± 410 ng/mL
- Tmax ([2]; normal rats): 0.29 ± 0.1 h
- half-life ([2]; normal rats): 3.66 ± 1.18 h
- CL/F ([2]; normal rats): 49.4 mL/min/kg
- MRT last ([2]; normal rats): 3.41 ± 0.33 h
- MRT inf ([2]; normal rats): 3.66 ± 0.48 h
- Cmax [2, 6]: 1110 ± 163 ng/mL
- Tmax [2, 6]: 0.26 ± 0.02 h
- half-life [2, 6]: 2.4 ± 0.51 h
- CL/F [2, 6]: 59.2 mL/min/kg
- MRT last [2, 6]: 4.37 ± 0.43 h
- MRT inf [2, 6]: 4.51 ± 0.38 h
- Cmax [2, 7]: 1450 ± 337 ng/mL
- Tmax [2, 7]: 0.19 ± 0.04 h
- half-life [2, 7]: 3.83 ± 0.64 h
- CL/F [2, 7]: 59.4 mL/min/kg
- MRT last [2, 7]: 4.68 ± 0.24 h
- MRT inf [2, 7]: 5.03 ± 0.33 h
- Cmax [2, 8]: 1750 ± 321 ng/mL
- Tmax [2, 8]: 0.24 ± 0.03 h
- half-life [2, 8]: 2.9 ± 0.65 h
- CL/F [2, 8]: 28.3 mL/min/kg
- MRT last [2, 8]: 5.08 ± 0.74 h
- MRT inf [2, 8]: 5.21 ± 0.78 h
- AUC0–t ([2]; normal rats): 2151.00 ± 498.88 h∗ng/mL
- AUC0–∞ ([2]; normal rats): 2171.33 ± 509.45 h∗ng/mL
- AUC0–t [2, 6]: 1724.77 ± 149.05 h∗ng/mL
- AUC0–∞ [2, 6]: 1741.55 ± 136.08 h∗ng/mL
- AUC0–t [2, 7]: 1726.42 ± 217.11 h∗ng/mL
- AUC0–∞ [2, 7]: 1750.35 ± 215.20 h∗ng/mL
- AUC0–t [2, 8]: 3764.53 ± 842.38^∗∗ h∗ng/mL
- AUC0–∞ [2, 8]: 3782.41 ± 832.52^∗∗ h∗ng/mL
Structure (SMILES): COC(=O)C1=CO[C@@H](O[C@@H]2O[C@H](CO)[C@@H](O)[C@H](O)[C@H]2O)[C@@H]2[C@H](C)O[C@@H](O)C[C@H]12 [Morroniside, morroniside]

Structure (SMILES): O=Cc1ccc(O)c(O)c1 [Protocatechuic aldehyde, protocatechuic aldehyde]
- Stability, Room temperature for 4 h, Mean [1, 3]: 87.4%
- Stability, Room temperature for 4 h, Mean [1, 4]: 86.8%
- Stability, Room temperature for 4 h, Mean [1, 5]: 90.9%
- Stability, Autosampler at 4°C for 24 h, Mean [1, 3]: 85.9%
- Stability, Autosampler at 4°C for 24 h, Mean [1, 4]: 88.4%
- Stability, Autosampler at 4°C for 24 h, Mean [1, 5]: 89.3%
- Stability, Three freeze-thaw cycles, Mean [1, 3]: 89.5%
- Stability, Three freeze-thaw cycles, Mean [1, 4]: 90.8%
- Stability, Three freeze-thaw cycles, Mean [1, 5]: 83.4%
- Cmax ([2]; normal rats): 18.9 ± 3.62 ng/mL
- Tmax ([2]; normal rats): 0.45 ± 0.1 h
- half-life ([2]; normal rats): 10.9 ± 4.48 h
- CL/F ([2]; normal rats): 12.5 mL/min/kg
- MRT last ([2]; normal rats): 5.14 ± 0.17 h
- MRT inf ([2]; normal rats): 15.8 ± 6.12 h
- Cmax [2, 6]: 10.1 ± 1.99 ng/mL
- Tmax [2, 6]: 0.3 h
- half-life [2, 6]: 12 ± 4.69 h
- CL/F [2, 6]: 21.3 mL/min/kg
- MRT last [2, 6]: 5.52 ± 0.21 h
- MRT inf [2, 6]: 17.8 ± 6.26 h
- Cmax [2, 7]: 11.4 ± 1.31 ng/mL
- half-life [2, 7]: 2.09 ± 0.89 h
- CL/F [2, 7]: 50.5 mL/min/kg
- MRT last [2, 7]: 2.55 ± 0.18 h
- MRT inf [2, 7]: 3.5 ± 1.38 h
- Cmax [2, 8]: 8.81 ± 1.61 ng/mL
- Tmax [2, 8]: 0.17 ± 0.07 h
- half-life [2, 8]: 2.2 ± 0.83 h
- CL/F [2, 8]: 48.9 mL/min/kg
- MRT last [2, 8]: 3.24 ± 0.37 h
- MRT inf [2, 8]: 3.79 ± 0.79 h
- AUC0–t ([2]; normal rats): 64.15 ± 10.30^∗∗ h∗ng/mL
- AUC0–∞ ([2]; normal rats): 119.88 ± 32.93^∗∗ h∗ng/mL
- AUC0–t [2, 6]: 34.92 ± 2.37 h∗ng/mL
- AUC0–∞ [2, 6]: 72.28 ± 21.64 h∗ng/mL
- AUC0–t [2, 7]: 24.70 ± 1.69^∗∗ h∗ng/mL
- AUC0–∞ [2, 7]: 28.68 ± 6.49^∗∗ h∗ng/mL
- AUC0–t [2, 8]: 27.48 ± 3.10^∗∗ h∗ng/mL
- AUC0–∞ [2, 8]: 28.87 ± 2.69^∗∗ h∗ng/mL
